#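 Interpolation was linear, between the two tested concentrations surrounding the appropriate level; five concentrations were tested over 48 hours in 96-well plates. GI50 = concentration required for 50% inhibition of growth.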 Calls of active or inactive are those of the source. Cut-off read from the data, not from the text of the source: active = GI50 up to about 1.1 µM and inactive = higher.
# Legend:
# Assay in all cases: NCI tumour cell line growth inhibition, 48 h
# DU-145 = system: DU-145
# HCC 2998 = system: HCC 2998
# OVCAR-3 = system: OVCAR-3
# UO-31 = system: UO-31
# SN12C = system: SN12C
# SF-539 = system: SF-539
# SNB-19 = system: SNB-19
# NCI-H23 = system: NCI-H23
# BT-549 = system: BT-549
# COLO 205 = system: COLO 205
# HOP-92 = system: HOP-92
# SNB-75 = system: SNB-75
# NCI/ADR-RES = system: NCI/ADR-RES
# SK-MEL-5 = system: SK-MEL-5
# HL-60 = system: HL-60
# LOX IMVI = system: LOX IMVI
# MDA-N = system: MDA-N
# SR = system: SR
# SW-620 = system: SW-620
# A498 = system: A498
SMILES,GI50 (DU-145),GI50 (HCC 2998),GI50 (OVCAR-3),GI50 (UO-31),GI50 (SN12C),GI50 (SF-539),GI50 (SNB-19),GI50 (NCI-H23),GI50 (BT-549),GI50 (COLO 205),GI50 (HOP-92),GI50 (SNB-75),GI50 (NCI/ADR-RES),GI50 (SK-MEL-5),GI50 (HL-60),GI50 (LOX IMVI),GI50 (MDA-N),GI50 (SR),GI50 (SW-620),GI50 (A498)
CC1=[N+](C)CCN1C,> 100 µM (inactive),> 100 µM (inactive),> 100 µM (inactive),> 100 µM (inactive),> 100 µM (inactive),> 100 µM (inactive),> 100 µM (inactive),> 100 µM (inactive),> 100 µM (inactive),> 100 µM (inactive),> 100 µM (inactive),> 100 µM (inactive),> 100 µM (inactive),> 100 µM (inactive),> 100 µM (inactive),> 100 µM (inactive),> 100 µM (inactive),> 100 µM (inactive),> 100 µM (inactive),–
NC(c1ccccc1)(C(F)(F)F)P1(=O)OC(=O)c2ccccc2O1 (stereo not drawn),> 100 µM (inactive),> 100 µM (inactive),> 100 µM (inactive),> 100 µM (inactive),> 100 µM (inactive),> 100 µM (inactive),> 100 µM (inactive),> 100 µM (inactive),> 100 µM (inactive),> 100 µM (inactive),20.9 µM (inactive),> 100 µM (inactive),> 100 µM (inactive),8.07 µM (inactive),–,–,> 100 µM (inactive),71.8 µM (inactive),> 100 µM (inactive),84.1 µM (inactive)
COc1ccc(OC)c(C2CCc3cnc4nc(N)nc(N)c4c3C2)c1 (stereo not drawn),> 100 µM (inactive),> 100 µM (inactive),> 100 µM (inactive),37.4 µM (inactive),> 100 µM (inactive),–,> 100 µM (inactive),64.6 µM (inactive),> 100 µM (inactive),> 100 µM (inactive),> 100 µM (inactive),19.7 µM (inactive),> 100 µM (inactive),> 100 µM (inactive),> 100 µM (inactive),62.1 µM (inactive),55.5 µM (inactive),56.9 µM (inactive),> 100 µM (inactive),> 100 µM (inactive)
O=c1c2ccccc2sc2c(CO)ccc(NCCN3CCCCC3)c12,2.54 µM (inactive),–,2.22 µM (inactive),1.88 µM (inactive),3.27 µM (inactive),5 µM (inactive),4.73 µM (inactive),2.96 µM (inactive),10.8 µM (inactive),1.92 µM (inactive),5.83 µM (inactive),5.77 µM (inactive),2.64 µM (inactive),1.69 µM (inactive),3.08 µM (inactive),2.86 µM (inactive),3.08 µM (inactive),0.497 µM (active),2.25 µM (inactive),3.15 µM (inactive)
CC(C)CCCC(C)[C@H]1CC[C@H]2N/C(=N/Cc3ccccc3)CCC[C@]12C (stereo partly drawn),2.52 µM (inactive),–,2.07 µM (inactive),2.59 µM (inactive),1.84 µM (inactive),1.83 µM (inactive),2.94 µM (inactive),2.23 µM (inactive),2.72 µM (inactive),1.42 µM (inactive),2.09 µM (inactive),1.83 µM (inactive),1.65 µM (inactive),1.58 µM (inactive),2.11 µM (inactive),1.92 µM (inactive),1.71 µM (inactive),2.72 µM (inactive),1.91 µM (inactive),1.95 µM (inactive)
Nc1cccc(OCC2CCCN3CCCCC23)c1 (stereo not drawn),17.5 µM (inactive),13.7 µM (inactive),16.9 µM (inactive),27.2 µM (inactive),16.7 µM (inactive),18.3 µM (inactive),17.9 µM (inactive),17.7 µM (inactive),17.1 µM (inactive),19.5 µM (inactive),28.5 µM (inactive),16.7 µM (inactive),19.3 µM (inactive),18.9 µM (inactive),20.1 µM (inactive),15.8 µM (inactive),16 µM (inactive),–,21.3 µM (inactive),14.4 µM (inactive)
CN/N=C(/C=C/c1ccccc1)C(C)C,> 100 µM (inactive),> 100 µM (inactive),> 100 µM (inactive),> 100 µM (inactive),> 100 µM (inactive),> 100 µM (inactive),> 100 µM (inactive),> 100 µM (inactive),> 100 µM (inactive),> 100 µM (inactive),–,> 100 µM (inactive),> 100 µM (inactive),> 100 µM (inactive),> 100 µM (inactive),> 100 µM (inactive),> 100 µM (inactive),> 100 µM (inactive),> 100 µM (inactive),–
O=c1[nH]c2nc3ccccc3c(=O)n2/c1=C/c1ccco1,> 100 µM (inactive),> 100 µM (inactive),> 100 µM (inactive),> 100 µM (inactive),> 100 µM (inactive),> 100 µM (inactive),> 100 µM (inactive),> 100 µM (inactive),> 100 µM (inactive),> 100 µM (inactive),> 100 µM (inactive),> 100 µM (inactive),> 100 µM (inactive),> 100 µM (inactive),> 100 µM (inactive),> 100 µM (inactive),> 100 µM (inactive),> 100 µM (inactive),> 100 µM (inactive),–
CC(C)(C)OC(=O)N(O)[C@@H]1CC[C@H](n2cnc3c(N)ncnc32)C1,> 100 µM (inactive),> 100 µM (inactive),> 100 µM (inactive),96.8 µM (inactive),> 100 µM (inactive),> 100 µM (inactive),> 100 µM (inactive),> 100 µM (inactive),> 100 µM (inactive),> 100 µM (inactive),> 100 µM (inactive),> 100 µM (inactive),> 100 µM (inactive),> 100 µM (inactive),–,> 100 µM (inactive),> 100 µM (inactive),> 100 µM (inactive),> 100 µM (inactive),> 100 µM (inactive)
CCOC(=O)CCC(C(=O)OCC)n1nnc2cc(Nc3c(C)[n+]([O-])c4ccc(Cl)cc4[n+]3[O-])ccc21 (stereo not drawn),> 100 µM (inactive),–,40.4 µM (inactive),65.5 µM (inactive),80.4 µM (inactive),82.4 µM (inactive),> 100 µM (inactive),92 µM (inactive),> 100 µM (inactive),44.8 µM (inactive),50.8 µM (inactive),93.1 µM (inactive),47.1 µM (inactive),73.8 µM (inactive),45 µM (inactive),52.2 µM (inactive),> 100 µM (inactive),48.6 µM (inactive),> 100 µM (inactive),> 100 µM (inactive)
Cc1nc2c(n1CCCl)C(=O)c1ccccc1C2=O,35.4 µM (inactive),21.7 µM (inactive),25.4 µM (inactive),–,30.3 µM (inactive),31.4 µM (inactive),39.1 µM (inactive),29.9 µM (inactive),20.1 µM (inactive),14 µM (inactive),29.2 µM (inactive),14.5 µM (inactive),16.2 µM (inactive),> 10 µM (inactive),16.3 µM (inactive),–,18.7 µM (inactive),28.8 µM (inactive),23 µM (inactive),–
CCCCCCCCCCCCCCCC(=O)OC1C(O)C(O)C(O)C(O)C12CO2 (stereo not drawn),88.5 µM (inactive),71.8 µM (inactive),24.6 µM (inactive),68.4 µM (inactive),17.5 µM (inactive),25.8 µM (inactive),> 100 µM (inactive),49.2 µM (inactive),24.2 µM (inactive),36.3 µM (inactive),14.3 µM (inactive),20.7 µM (inactive),46 µM (inactive),> 100 µM (inactive),15.2 µM (inactive),20.3 µM (inactive),> 100 µM (inactive),–,14.7 µM (inactive),> 100 µM (inactive)
NNC(=O)COc1nc(-c2cccs2)nc2ccc(I)cc12,21.7 µM (inactive),20 µM (inactive),15.9 µM (inactive),21.1 µM (inactive),23.1 µM (inactive),–,13.4 µM (inactive),15.3 µM (inactive),15.3 µM (inactive),26.8 µM (inactive),18 µM (inactive),22.7 µM (inactive),28.1 µM (inactive),20.1 µM (inactive),–,17.6 µM (inactive),31.7 µM (inactive),15.8 µM (inactive),34.5 µM (inactive),–
Cc1ccc(O)c(Cc2nc3ccccc3nc2-c2cccc(Br)c2)c1,> 100 µM (inactive),–,> 100 µM (inactive),89.1 µM (inactive),> 100 µM (inactive),> 100 µM (inactive),19.9 µM (inactive),> 100 µM (inactive),> 100 µM (inactive),> 100 µM (inactive),> 100 µM (inactive),> 100 µM (inactive),> 100 µM (inactive),> 100 µM (inactive),52.1 µM (inactive),> 100 µM (inactive),> 100 µM (inactive),33.2 µM (inactive),86.3 µM (inactive),–
COc1ccc(C(Nc2ccccn2)c2cc(C(C)(C)C)cc(C(C)(C)C)c2O)cc1 (stereo not drawn),7.76 µM (inactive),12.3 µM (inactive),11.4 µM (inactive),29.9 µM (inactive),18.1 µM (inactive),48.1 µM (inactive),61 µM (inactive),17.1 µM (inactive),17 µM (inactive),19 µM (inactive),31.6 µM (inactive),13.8 µM (inactive),16 µM (inactive),16.3 µM (inactive),–,13.9 µM (inactive),20.7 µM (inactive),10.1 µM (inactive),19.2 µM (inactive),54.8 µM (inactive)
